Reference: US11299453B2 (Universität zu Köln, priority 2017, dated 2022)
Like-named read-outs stand apart in the source and are kept apart here.

Key:
[1] = Cell viability (PrestoBlue) of miPSC-derived cardiomyocytes; format: cell-based, murine; conditions: mouse, αPIG-AT25 miPSC-derived cardiomyocytes (puromycin-selected), 10 μM, 72 h of exposure
Protocol: The differentiation of transgenic mPSCs was initiated in mass cultures as briefly described below. One million cells were transferred per non-adhering 10 cm dish with 14 ml differentiation medium composed of Iscove's Modified Dulbecco's Medium (IMDM) with GlutaMAX (Life Technologies) supplemented with 20% FBS, 1×NEAA and 100 μM β-ME. Embryoid bodies (EBs) from day 2 of differentiation were transferred in a 250 ml spinner flask (CELLSPIN 250, Integra Biosciences, Fernwald, Germany) with a density of 3×10^4 EBs per 200 ml of differentiation medium. On the first 2 days of differentiation medium was supplemented with 50 μg/ml L-ascorbic acid phosphate (AA, Wako pure chemicals industry, Japan) in order to promote the development of cardiac cells. For the selection of GFP-expressing CMs, 50 ml of the medium was exchanged with fresh differentiation medium and 8 μg/ml puromycin (Life Technologies) were supplemented on day 9 of differentiation. Two days later, the cardiac clusters were transferred on non-adhering 10 cm dishes with fresh differentiation medium containing 8 μg/ml puromycin. In the further course of differentiation medium was exchanged every 2-3 days. If not otherwise specified, the purification of GFP-positive CMs with puromycin was continued until day 16 of differentiation. For single cell analyses and transfer of PSC-derived CMs on cell culture plates, cardiac clusters were dissociated with 0.25% trypsin-EDTA (Life Technologies) supplemented with 50 U/ml DNase I (AppliChem, Darmstadt, Germany) for 20-30 min at 37° C. The mPSC-derived CMs were filtered through a polyamide membrane with […] pore size (Sefar, Heiden, Switzerland). Cell numbers were determined with a Neubauer hemocytometer and cells were stored on ice until further use.
(§1) Serial dilutions of DMSO stock solutions of PluriSIn #1 (Sigma-Aldrich, catalog number SML0682) or one of small molecules SM1-SM10, were prepared from 20 mM stock solutions with cell culture medium. Murine PSCs were dissociated with 0.05% trypsin-EDTA, seeded on 0.1% gelatin-coated 96-well plates with a density of 5000 cells/well and cultured in maintenance medium supplemented with 1000 U/ml of mLIF. After 1 day, cells were incubated with 40 μM PluriSIn #1 and derivatives for 72 h or with 0.01-25 μM SMs for 48 h, respectively. For treatment of corresponding PSC-derived CMs with SMs, puromycin-selected miPSC-CMs from day 14 of differentiation were dissociated with 0.25% trypsin-EDTA as described above and plated on 96-well plates (5×10^4 cells/well) which were pre-coated with 5 μg/ml fibronectin (PromoCell, Heidelberg, Germany). After culturing miPSC-CMs with 8 μg/ml puromycin for 2 more days, they were incubated in differentiation medium supplemented with 0.1-100 μM of SMs for 48-72 h. Following small molecule treatment, cell viability was determined with PrestoBlue cell viability reagent (Life Technologies). To this end, cells were washed with PBS (with calcium and magnesium, Life Technologies) and incubated with PrestoBlue reagent diluted in cell culture medium for 40 min at 37° C.
(§2) Fluorescence intensities correlating with the number of viable cells in the wells were measured in black flat-bottom 96-well plates (Greiner Bio-One, Kremsmünster, Austria) with a GeniosPro microplate reader (Tecan, Männedorf, Schweiz).
The selectivity of compounds was investigated by comparing their cytotoxicity against undifferentiated iPSCs and iPSC-derived CMs. Murine iPSCs αPIG-AT25 were incubated for 48 h with compounds SM1, SM2, SM4, SM5, SM6 and SM8 in concentrations of 0.01 to 10 μM. Cell culture and cardiac differentiation were performed as described above. Experiments were run at least in quadruplicate. The cell viability was determined using PrestoBlue cell viability reagent.
The viability of salicylic diamine-treated CMs was confirmed by 72 h of exposure to concentrations of 0.01 μM, 0.1 μM, 1 μM, 10 μM and 25 μM of compounds SM1, SM2, SM4, SM5, SM6 and SM8.

[2] = tested on: murine and human PSCs; experiment: Dose response assays, statements over murine and human PSCs; format: cell-based; conditions: for IC50: iPSC, 48 h, read-out: IC50 values, range over murine iPSC line, two murine ESC lines and human iPSC line
Protocol: as §1, §2
IC50 values were determined by regression analysis of dose-response curves upon logarithmic transformation. Microscopic images of PSCs were taken with a Zeiss Axiovert 100 inverted microscope and GFP images of CMs were captured with a Zeiss Axiovert 200M fluorescence microscope (both Carl Zeiss, Oberkochen, Germany) and analyzed with Zeiss Axiovision 4.5 software (Carl Zeiss).
In order to quantify compound cytotoxicity, dose response assays were performed by treating PSCs with compound concentrations between nontoxic 0.01 μM and PSC-eliminating 10 μM for 48 h. Murine iPSCs αPIG-AT25, embryonic stem cell lines αPIG44-D3 and R1, and human induced pluripotent stem cell (hiPSC) line NP0014-C6 were used. Cell culture and dose response assays were performed as described above.

[3] = tested on: αPIG-AT25 miPSC-derived cardiomyocytes; experiment: Cell viability (PrestoBlue) of miPSC-derived cardiomyocytes; format: cell-based, murine; conditions: 48 h treatment
[4] = tested on: miPSC-CM monolayers; experiment: Cardiomyocyte contraction rate by video imaging; format: cell-based, murine; conditions: 10 μM, 48 h treatment
Protocol: The effect of compound treatment on CM beating frequency was determined by video imaging of iPSC-CM monolayers after exposure to SMs. On day 14 of differentiation puromycin-selected miPSC-CMs were plated on a fibronectin-coated multi-well cell culture plate (10^5 cells/cm^2). […] Following SM treatment, cells were washed twice with PBS (with calcium and magnesium) and cultured for 72 h in fresh differentiation medium. […] The number of beats per each video sequence was quantified and the contraction rate was calculated in beats per minute.
Further, the effect of compound treatment on the CM beating frequency was determined by video imaging of iPSC-CM monolayers after exposure to compounds as described above.

[5] = read-out: decrease of cardiomyocyte viability, in average over SM1, SM4 and SM8
[6] = read-out: decrease of cardiomyocyte viability

Row | SMILES | IC50 [2] [nM] | decrease of contraction rate of CMs compared to DMSO-treated control [4] [%] | cytotoxicity at 72 h, 10 μM [1, 5] [%] | microscopic analysis of CM monolayers [3] | cytotoxicity at 72 h, 10 μM [1, 6] [%] | effect on pluripotent stem cells ([2]; 10 μM, two day-treatment)
1 | Oc1c(CNC2CCCC[C@@H]2NCc2cccc(-c3ccccc3)c2O)cccc1-c1ccccc1 (stereo partly drawn) [SM1, (1S,2S)-N,N′-di[(2-hydroxy-3-phenyl)-benzyl]-1,2-diaminocyclo-hexane] | 100 to 5000 |  | 79.8 ± 14.7 |  |  | 
2 | Oc1c(/C=N/[C@H]2CCCC[C@@H]2NCc2cccc(-c3ccccc3)c2O)cccc1-c1ccccc1 [SM2, (1S,2S)-N-[(2-hydroxy-3-phenyl)-benzyl]-N′-[(2-hydroxy-3-phenyl)-benzylidene]-1,2-diaminocyclohexane] | 100 to 5000 | 61.02±2.67 |  | intact CM monolayers | 18.5 ± 7.06 | 
3 | Oc1ccccc1CN[C@@H]1CCCC[C@H]1NCc1ccccc1O [SM6, (1R,2R)-N,N′-di(2-hydroxybenzyl)-1,2-diaminocyclohexane] | 100 to 5000 | 24.26±15.71 |  | intact CM monolayers | 11 ± 13.2 | elimination of pluripotent stem cells

Now from value to compound, other results behind:

Row | IC50 [2] [nM] | decrease of contraction rate of CMs compared to DMSO-treated control [4] [%] | SMILES | cytotoxicity at 72 h, 10 μM [1, 5] [%] | microscopic analysis of CM monolayers [3] | cytotoxicity at 72 h, 10 μM [1, 6] [%] | effect on pluripotent stem cells ([2]; 10 μM, two day-treatment)
4 | 100 to 5000 |  | Oc1c(CN[C@@H]2CCCC[C@H]2NCc2cccc(-c3ccccc3)c2O)cccc1-c1ccccc1 [SM4, (1R,2R)-N,N′-di[(2-hydroxy-3-phenyl)-benzyl]-1,2-diaminocyclohexane] | 79.8 ± 14.7 |  |  | 
5 | 100 to 5000 |  | Oc1c(/C=N/[C@@H]2CCCC[C@H]2NCc2cccc(-c3ccccc3)c2O)cccc1-c1ccccc1 [SM5, (1R,2R)-N-[(2-hydroxy-3-phenyl)-benzyl]-N′-[(2-hydroxy-3-phenyl)-benzylidene]-1,2-diaminocyclohexane] |  |  | 14.1 ± 13.8 | 
6 |  | 71.37±26.91 | Oc1c(CNC2CCCC[C@@H]2NCc2cccc(-c3ccccc3)c2O)cccc1-c1ccccc1 (stereo partly drawn) [SM8, (1S,2R)-N,N′-di[(2-hydroxy-3-phenyl)-benzyl]-1,2-diaminocyclohexane] |  | intact CM monolayers |  | 
